pIC50: −log10 of the molar value. Some results are limits rather than exact numbers.

Data set [1] in a line: Microsomal stability assay, liver microsome half-life (monkey). As to conditions: pH 7.4; monkey liver microsomes 0.5 mg/mL, 1 μM compound, 37° C.; read-out: Liver microsome T1/2 Monkey. The format is in vitro ADME. The source says:
(§1) Microsomal Stability Assay: Microsomal stability assay is a widely used in vitro model to characterize the metabolic conversion by phase I enzymes, such as cytochrome P450 (CYP) enzymes. Since metabolism is known to be highly variable in different species, microsomal stability assay is commonly run in multiple species. Metabolic stability of testing compound can be evaluated using human, rat, mouse, or other animal liver or intestine microsomes to predict intrinsic clearance.
(§2) The assay was carried out in 96-well microtiter plates at 37° C. Reaction mixtures (25 μL) contained a final concentration of 1 μM test compound, 0.5 mg/mL liver microsomes protein, and 1 mM NADPH and/or 1 mM UDPGA (with alamethicin) in 100 mM potassium phosphate, pH 7.4 buffer with 3 mM MgCl2. The incubation was done with N=1, but duplicate incubation at each time point can be prepared if necessary. At each of the time points (for example, 0, 15, 30, and 60 minutes), 150 μL of quench solution (100% acetonitrile with 0.1% formic acid) with internal standard was transferred to each well. Besides the zero minute controls, mixtures containing the same components except the NADPH can also be prepared as the negative control. Verapamil was included as a positive control to verify assay performance. Plates were sealed, vortexed, and centrifuged at 4° C. for 15 minutes at 4000 rpm. The supernatant is transferred to fresh plates for LC/MS/MS analysis.
(§3) Summarized conditions: [Compound]=1 μM, [LM]=0.5 mg/mL, [NADPH]=1 mM and/or [UDPGA]=1 mM, Buffer=100 mM Potassium Phosphate, pH 7.4 with 3 mM MgCl2, Time=0, 15, 30, and 60 min, and Temperature=37° C.
(§4) All samples were analyzed on LC/MS/MS using an AB Sciex API 4000 instrument, coupled to a Shimadzu LC-20AD LC Pump system. Analytical samples were separated using a Waters Atlantis T3 dC18 reverse phase HPLC column (20 mm×2.1 mm) at a flow rate of 0.5 mL/min. The mobile phase consisted of 0.1% formic acid in water (solvent A) and 0.1% formic acid in 100% acetonitrile (solvent B).
(§5) The extent of metabolism is calculated as the disappearance of the test compound, compared to the 0-min time incubation. Initial rates are calculated for the compound concentration and used to determine half-life (t½).
For orientation: Microsomes from liver hold many membrane-bound enzymes, among them those of drug oxidation.

A short description of data set [2]: Microsomal stability assay, liver microsome half-life (mouse). Format: in vitro ADME. As to conditions: pH 7.4; mouse liver microsomes 0.5 mg/mL, 1 μM compound, 37° C.; read-out: Liver microsome T1/2 Mouse.
Excerpt: as §1, §2, §3, §4
(§6) The extent of metabolism is calculated as the disappearance of the test compound, compared to the 0-min time incubation. Initial rates are calculated for the compound concentration and used to determine half-life (t½). […]

The nature of data set [3]: Microsomal stability assay, liver microsome half-life (rat). Format: in vitro ADME. As to conditions: pH 7.4; rat liver microsomes 0.5 mg/mL, 1 μM compound, 37° C.; read-out: Liver microsome T1/2 Rat.
Excerpt: as §1, §2, §3, §4, §6

The nature of data set [4]: Microsomal stability assay, liver microsome half-life (dog). The format is in vitro ADME. The conditions noted are these: pH 7.4; dog liver microsomes 0.5 mg/mL, 1 μM compound, 37° C.; read-out: Liver microsome T1/2 Dog.
Excerpt: as §1, §2, §3, §4, §5

The next data set deals with T1, androgen receptor (AR) (Homo sapiens, UniProt P10275, T878A).
T1 sequence (P10275 1-920 T878A): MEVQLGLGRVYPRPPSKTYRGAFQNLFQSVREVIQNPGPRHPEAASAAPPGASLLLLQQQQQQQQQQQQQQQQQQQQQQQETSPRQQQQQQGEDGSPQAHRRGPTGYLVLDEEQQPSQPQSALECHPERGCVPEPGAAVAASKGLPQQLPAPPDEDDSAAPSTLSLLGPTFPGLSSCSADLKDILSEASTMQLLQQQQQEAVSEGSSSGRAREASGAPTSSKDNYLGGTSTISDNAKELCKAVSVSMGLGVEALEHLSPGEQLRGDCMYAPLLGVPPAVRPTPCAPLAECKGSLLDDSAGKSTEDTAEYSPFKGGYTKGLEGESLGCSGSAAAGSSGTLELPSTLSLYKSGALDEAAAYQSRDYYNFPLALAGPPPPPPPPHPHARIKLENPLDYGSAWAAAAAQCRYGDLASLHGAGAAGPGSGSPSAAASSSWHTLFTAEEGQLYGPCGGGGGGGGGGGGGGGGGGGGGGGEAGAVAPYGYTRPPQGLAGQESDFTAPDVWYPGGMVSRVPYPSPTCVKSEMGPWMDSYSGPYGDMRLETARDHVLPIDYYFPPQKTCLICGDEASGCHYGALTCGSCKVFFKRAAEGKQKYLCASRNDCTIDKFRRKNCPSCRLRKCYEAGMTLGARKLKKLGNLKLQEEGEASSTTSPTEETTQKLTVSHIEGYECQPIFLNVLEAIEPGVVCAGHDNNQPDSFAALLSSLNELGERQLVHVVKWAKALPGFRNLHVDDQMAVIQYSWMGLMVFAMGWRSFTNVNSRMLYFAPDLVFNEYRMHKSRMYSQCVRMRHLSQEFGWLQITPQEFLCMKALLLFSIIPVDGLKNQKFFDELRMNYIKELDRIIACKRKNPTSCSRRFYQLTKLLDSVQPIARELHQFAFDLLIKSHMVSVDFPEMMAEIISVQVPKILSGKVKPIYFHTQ
The data set can be described thus: Androgen-induced PSA (6.1 kb)-luciferase reporter assay in LNCaP cells (R1881 1 nM). Format: cell-based. Also on record: endogenous in cells; host or cells: LNCaP. As to conditions: 24 h, read-out: PSA-Luc IC50 Range. Put shortly:
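LNCaP cells transiently transfected with PSA (6.1 kb)-luciferase for 24 h, pretreated 1 h with compound or DMSO, then stimulated with 1 nM R1881 for 24 h. Firefly luciferase in lysates normalized to protein content; IC50 relative to R1881-induced vehicle activity.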
(In general: A reporter such as luciferase makes a cellular process visible.)

Data set [5] is described as follows: Microsomal stability assay, liver microsome half-life (human). Format: in vitro ADME. The conditions noted are these: pH 7.4; human liver microsomes 0.5 mg/mL, 1 μM compound, 37° C.; read-out: Liver microsome T1/2 Human.
Excerpt: as §1, §2, §3, §4, §6

Take `CC(C)(c1ccc(-c2ccc3c(c2)CCN(S(C)(=O)=O)C3)cc1)c1cc(Cl)c(OCCCl)c(C#N)c1` [Compound A114]: the half-life at 1 μM in data set [1] was above 2 h; in data set [2] it was above 2 h; in data set [3], above 2 h; in data set [4] it was 1.05 h; in data set [5] it was above 2 h. For the same compound, the negative-log IC50 (pIC50) (as a rule, −log10 of the IC50, conventionally taken in molar units) on androgen receptor (AR) was 5.70 to 6.30.

Take `CS(=O)(=O)NC12CC(COc3ccc4c(c3)CCC4c3cc(Cl)c(OCCCl)c(C#N)c3)(C1)C2` (stereo not drawn) [Compound A246]: the half-life at 1 μM in data set [1] is 1.3 h; in data set [2], above 2 h; in data set [3], 1.08 h; in data set [4] it was 1.32 h; in data set [5] it was 1.48 h. Also, on androgen receptor (AR), the pIC50 is 5.70 to 6.30.

Turning to `C[C@@H](Oc1ccc(C(C)(C)c2cc(Cl)c(OCCCl)c(C#N)c2)cc1)C12CC(NS(C)(=O)=O)(C1)C2` [Compound A264], the half-life at 1 μM is 0.8 h in data set [1]; above 2 h in data set [2]; above 2 h in data set [3]; above 2 h in data set [4]; above 2 h in data set [5]. Further, the pIC50 at androgen receptor (AR) is 5.70 to 6.30.

As to `CC(C)(c1ccc(-c2ccc3nc(NS(C)(=O)=O)sc3c2)cc1)c1cc(Cl)c(OCCCl)c(C#N)c1` [Compound A274], the half-life at 1 μM in data set [1], in data set [2], in data set [3], in data set [4] and in data set [5] was above 2 h in each case. Moreover, at androgen receptor (AR), the pIC50 was above 6.30.

Regarding `CS(=O)(=O)NC1CCN(Cc2ccc3c(ccn3-c3cc(Cl)c(OCCCl)c(C#N)c3)c2)CC1(F)F` (stereo not drawn) [Compound A239], the half-life at 1 μM in data set [1] was 0.65 h; in data set [2], above 2 h; in data set [3], above 2 h; in data set [4], above 2 h; in data set [5] it was 1.88 h. Also, the pIC50 at androgen receptor (AR) is 5.70 to 6.30.

As to `CS(=O)(=O)N[C@H]1C[C@H](COc2ccc3c(ccn3-c3cc(Cl)c(OCCCl)c(C#N)c3)c2)C1` [Compound A135], the half-life at 1 μM is 0.733 h in data set [1]; 1.97 h in data set [2]; above 2 h in data set [3]; above 2 h in data set [4]; above 2 h in data set [5]. For the same compound, on androgen receptor (AR), the pIC50 was 5.70 to 6.30.

As for `CS(=O)(=O)Nc1ncc2cc(-c3ccc(Oc4cc(Cl)c(OCCCl)c(C#N)c4)cc3)ccc2n1` [Compound A116, N-(6-(4-(3-chloro-4-(2-chloroethoxy)-5-cyanophenoxy)phenyl)quinazolin-2-yl)methanesulfonamide], the half-life at 1 μM in data set [1], in data set [2], in data set [3], in data set [4] and in data set [5] was above 2 h in each case. Moreover, the pIC50 on androgen receptor (AR) was 5.70 to 6.30.

On to `CS(=O)(=O)N1CC(COc2ccc3c(ccn3-c3cc(Cl)c(OCCCl)c(C#N)c3)c2)C1` [Compound A59], for which the half-life at 1 μM was 0.117 h in data set [1]; above 2 h in data set [2]; above 2 h in data set [3]; 0.967 h in data set [4]; 0.183 h in data set [5]. The pIC50 on androgen receptor (AR) was above 6.30.

Turning to `CS(=O)(=O)NC1CN(CCc2ccc3c(ccn3-c3cc(Cl)c(OCCCl)c(C#N)c3)c2)C1` [Compound A126, N-(1-(2-(1-(3-chloro-4-(2-chloroethoxy)-5-cyanophenyl)-1H-indol-5-yl)ethyl)azetidin-3-yl)methanesulfonamide], the half-life at 1 μM in data set [1] is 0.583 h; in data set [2] it was above 2 h; in data set [3] it was 0.95 h; in data set [4] it was 0.733 h; in data set [5] it was above 2 h. For the same compound, on androgen receptor (AR), the pIC50 was 5.70 to 6.30.

Take `CC(C)(c1ccc(OCC23CC(NS(C)(=O)=O)(C2)C3)cc1)c1cc(Cl)c(OCCCl)c(C#N)c1` [Compound A132, N-(3-((4-(2-(3-chloro-4-(2-chloroethoxy)-5-cyanophenyl)propan-2-yl)phenoxy)methyl)bicyclo[1.1.1]pentan-1-yl)methanesulfonamide]: the half-life at 1 μM in data set [1] was 0.95 h; in data set [2], above 2 h; in data set [3], 1.62 h; in data set [4] it was above 2 h; in data set [5], above 2 h. In addition, at androgen receptor (AR), the pIC50 was 5.70 to 6.30.

Take `CC(C)(c1ccc(-c2ccc3nc(NS(C)(=O)=O)cnc3c2)cc1)c1cc(Cl)c(OCCCl)c(C#N)c1` [Compound A107, N-(6-(4-(2-(3-chloro-4-(2-chloroethoxy)-5-cyanophenyl)propan-2-yl)phenyl)quinoxalin-2-yl)methanesulfonamide]: the half-life at 1 μM in data set [1], in data set [2], in data set [3], in data set [4] and in data set [5] was above 2 h throughout. The pIC50 at androgen receptor (AR) was above 6.30.

For `CC(C)(c1ccc(-c2cnc3c(c2)CCC3NS(C)(=O)=O)cc1)c1cc(Cl)c(OCCCl)c(C#N)c1` (stereo not drawn) [Compound A217], the half-life at 1 μM in data set [1] was 0.933 h; in data set [2], above 2 h; in data set [3], 0.433 h; in data set [4] it was 0.833 h; in data set [5] it was above 2 h. The pIC50 on androgen receptor (AR) was 5.70 to 6.30.

Consider `CC(c1cc(Cl)c(OCCCl)c(C#N)c1)n1cc(-c2ccc3nc(NS(C)(=O)=O)ncc3c2)cn1` (stereo not drawn) [Compound A141], for which the half-life at 1 μM in data set [1] was 1.1 h; in data set [2], above 2 h; in data set [3], above 2 h; in data set [4], above 2 h; in data set [5], above 2 h. Moreover, the pIC50 on androgen receptor (AR) was below 5.70.

The record behind these values is US20220380378A1 (ESSA Pharma, Inc., priority 2021, published 2022).
